Experimental data as given in patent publication US4450269A, “Mono-5-substituted-3-chloro-4H-1,2,6-thiadiazin-4-one antifungal agents” (FMC Corporation, priority 1980, dated 1984).

Legend:
Test in all cases: Spore germination test
Type in all cases: cell-based
Alternaria solani = conditions: AS, 48 hours
Method in brief: (§1)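 Compound in acetone was mixed into water agar at final 40, 10, 2.5 and 1 ppm and poured into quadrant dishes. Quadrants received spore suspension, while Erysiphe polygoni and Uromyces phaseoli spores were brushed on from infected leaves. After 48 h at 24 °C, the percentage of germinated spores was converted to a germination rating.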

Erysiphe polygoni = conditions: EP, 48 hours
Method in brief: as §1

Uromyces phaseoli = conditions: UP, 48 hours
Method in brief: as §1

SMILES | Spore Germination Rating (Alternaria solani; 1.0 ppm) | Spore Germination Rating (Alternaria solani; 2.5 ppm) | Spore Germination Rating (Alternaria solani; 10 ppm) | Spore Germination Rating (Alternaria solani; 40 ppm) | Spore Germination Rating (Erysiphe polygoni; 1.0 ppm) | Spore Germination Rating (Erysiphe polygoni; 2.5 ppm) | Spore Germination Rating (Erysiphe polygoni; 10 ppm) | Spore Germination Rating (Erysiphe polygoni; 40 ppm) | Spore Germination Rating (Uromyces phaseoli; 1.0 ppm) | Spore Germination Rating (Uromyces phaseoli; 2.5 ppm) | Spore Germination Rating (Uromyces phaseoli; 10 ppm) | Spore Germination Rating (Uromyces phaseoli; 40 ppm)
O=C(OCc1ccccc1)Oc1ccc(Oc2nsnc(Cl)c2=O)cc1 [Compound 38, 3-chloro-5-[4-(phenylmethoxycarbonyloxy)phenoxyl]-4H-1,2,6-thiadiazin-4-one] | 4 (80-100) | 4 (80-100) | 4 (80-100) | 4 (80-100) | 4 (80-100) | 4 (80-100) | 4 (80-100) | 4 (80-100) | 4 (80-100) | 4 (80-100) | 3 (60-80) | 2 (40-60)
C[S+]([O-])c1ccc(Oc2nsnc(Cl)c2=O)cc1 (stereo not drawn) [Compound 40, 3-chloro-5-[(4-methylsulfinyl)phenoxy]-4H-1,2,6,-thiadiazin-4-one] | 4 (80-100) | 2 (40-60) | 1 (10-40) | 0 (0-10) | 4 (80-100) | 4 (80-100) | 4 (80-100) | 1 (10-40) | 3 (60-80) | 2 (40-60) | 1 (10-40) | 1 (10-40)
CC(=O)Nc1cccc(Oc2nsnc(Cl)c2=O)c1 [Compound 42, 3-[(3-N--acetylamino)-phenoxy]-5-chloro-4H--1,2,6-thiadiazin-4-one] | 4 (80-100) | 4 (80-100) | 4 (80-100) | 2 (40-60) | 4 (80-100) | 4 (80-100) | 4 (80-100) | 4 (80-100) | 4 (80-100) | 3 (60-80) | 1 (10-40) | 0 (0-10)
CC(=O)Nc1ccccc1Oc1nsnc(Cl)c1=O [Compound 43, 3-[(2-acetylamino)-phenoxy]-5-chloro-4H--1,2,6-thiadiazin-4-one] | 4 (80-100) | 4 (80-100) | 4 (80-100) | 3 (60-80) | 4 (80-100) | 4 (80-100) | 4 (80-100) | 1 (10-40) | 4 (80-100) | 4 (80-100) | 4 (80-100) | 4 (80-100)
O=c1c(Cl)nsnc1Oc1cccc(C(F)(F)F)c1 [Compound 44, 3-chloro-5-[(3-trifluoromethyl)phenoxy]-4H--1,2,6-thiadiazin-4-one] | 4 (80-100) | 1 (10-40) | 0 (0-10) | 0 (0-10) | 3 (60-80) | 1 (10-40) | 0 (0-10) | 0 (0-10) | 1 (10-40) | 0 (0-10) | 0 (0-10) | 0 (0-10)
O=C(O)Cc1ccccc1Oc1nsnc(Cl)c1=O [Compound 45, 3-(2-carboxymethylphenoxy)-5-chloro-4H--1,2,6-thiadiazin-4-one] | 4 (80-100) | 4 (80-100) | 4 (80-100) | 2 (40-60) | 4 (80-100) | 4 (80-100) | 4 (80-100) | 2 (40-60) | 4 (80-100) | 4 (80-100) | 4 (80-100) | 2 (40-60)
N#CCc1ccc(Oc2nsnc(Cl)c2=O)cc1 [Compound 46, 3-chloro-5-[(4-cyanomethyl)-phenoxy]4H--1,2,6-thiadiazin-4-one] | 4 (80-100) | 2 (40-60) | 2 (40-60) | 0 (0-10) | 4 (80-100) | 4 (80-100) | 4 (80-100) | 4 (80-100) | 1 (10-40) | 0 (0-10) | 0 (0-10) | 0 (0-10)
CC(=O)c1ccc(Oc2nsnc(Cl)c2=O)cc1 [Compound 47, 3-(4-acetylphenoxy)-5-chloro-4H--1,2,6-thiadiazin-4-one] | 2 (40-60) | 0 (0-10) | 0 (0-10) | 0 (0-10) | 4 (80-100) | 4 (80-100) | 4 (80-100) | 1 (10-40) | 0 (0-10) | 0 (0-10) | 0 (0-10) | 0 (0-10)
